Measurements taken from US20060223877A1, “Methods of treatment utilizing certain melatonin derivatives” (priority 2005, published 2006).

What was measured:
[1] = test system: patients with a diagnosis of migraine with or without aura; settings: daily treatment; Peres et al., 2004; cited from earlier work
[2] = test system: subjects fed a high-fat diet; settings: daily administration, Pruet-Marcassus et al., 2003; cited from earlier work
middle-aged male rats = settings: cited from earlier work
[3] = test system: patients with a diagnosis of fibromyalgia; settings: cited from earlier work
melatonin receptors = settings: Mulchahey, et al., 2004; cited from earlier work
humans = settings: 20 mg to 100 mg per day, Zemlan et al., 2005; cited from earlier work
IHI mice = assay: ischemia-hypoxia injury (IHI) model of cerebrovascular disease; type: in vivo; settings: 10 and 100 mg/kg intraperitoneally 30 minutes before and 30 minutes after hypoxia, Day 3, dose-dependent, FIG. 6
Protocol: Subjects were 8-12 week old adult male C57B116 mice housed in a temperature- and humidity-controlled vivarium on a 12:12 hr light:dark cycle with food and water available ad libitum. The mice were subjected to ischemia-hypoxia injury (IHI). The injury was rendered by permanently occluding the right common carotid artery and delivering hypoxic gas (7.5% O2) for 30 minutes employing a gas mask under anesthesia. The animal's body temperature was maintained at 36.5-37.5° C. throughout the experiment. For drug efficacy studies, β-methyl-6-chloro-melatonin was administered intraperitoneally 30 minutes before and 30 minutes after hypoxia at doses of 0 (vehicle only), 10 and 100 mg/kg. On Day 3 after injury, quantitative morphometric image analysis was employed to assess infarction size in Nissl-stained brain sections isolated from the animals. β-methyl-6-chloromelatonin administration caused a 33-40% reduction in brain infarct size in IHI mice compared to vehicle-treated IHI mice (FIG. 6). The protection conferred by β-methyl-6-chloromelatonin was dose-dependent.

male Sprague-Dawley rats = assay: open field test; type: in vivo; settings: for rearing behavior compared to vehicle controls: FIG. 1; for immobility compared to controls: FIG. 2
Protocol: Subjects were male Sprague-Dawley rats weighing 250-300 g housed in a temperature- and humidity-controlled vivarium on a 12:12 hr light:dark cycle with food and water available ad libitum. Behavioral testing occurred 2 hrs after lights out. […] All treatments were administered to an animal once (no repeat drug administration) with 8 animals per treatment. The open filed testing procedure has been previously described (Herman et al., 2003). Briefly, the open field apparatus is a 36×36-inch white PLEXIGLAS® enclosure, divided into 36 squares of equal size. Animals are placed into the apparatus and allowed to explore the environment for 5 min. Sessions are videotaped and scored for behavior by an investigator blinded to the treatment condition. Behavior is scored for the two primary outcome measures: rearing and immobility, as well as grooming; and secondary measures of sedation: total mobility and quadrant crossing.

[4] = test system: TNF-α stimulated EOC-20 cells; assay: nitrite and PGE2 in TNF-α stimulated EOC-20 microglial cells; type: cell-based; settings: 20 ng/ml TNF-α-stimulated EOC-20 cells, dose-dependent manner
Source text: The compounds of the present invention are effective in treating neurodegenerative diseases, such as amyotrophic lateral sclerosis (ALS), Alzheimer's disease (AD), Huntington's disease (HD) and Parkinson's disease (PD).
The experiments consisted of treating TNF-α stimulated EOC-20 cells with increasing concentrations of β-methyl-6-chloromelatonin followed by measuring neuroinflammation-associated markers. Neuroinflammation activates microglia to produce proinflammatory cytokines, reactive oxygen species (ROS) and reactive nitrogen species (RNS) in ALS, AD, HD and PD-associated pathophysiology (Deckel, 2001; Cacquevel, 2004; McGeer and McGeer, 2004; Sargsyanet al., 2005). Increase in prostaglandin (PGE2), a potent inflammatory mediator, and nitrite, an indirect measure of RNS production, indicates inflammation-induced neurodegeneration in ALS, AD, HD and PD patients (Milstien et al., 1994; Tohgi et al., 1999; Deckel, 2001 ;Cacquevel, 2004).

TBI rats = assay: traumatic brain injury, controlled cortical impact model; type: in vivo; settings: 10 mg/kg intraperitoneally, two doses (15 minutes and 24 hours after TBI), Day 7 morphometry, P=0.01, FIG. 3
Source text: Subjects were male Sprague-Dawley rats weighing 250-300 g housed in a temperature- and humidity-controlled vivarium on a 12:12 hr light:dark cycle with food and water available ad libitum. Animals were subjected to TBI using controlled cortical impact model. (Sullivan et al. 2000a). Animals were anesthetized and their brain cortex exposed. Employing a pneumatically-controlled impactor rod with a 5 mm diameter beveled tip, one of the cortices was compressed at 3.5 m/sec to a predetermined depth of 1.5 mm, resulting in TBI. The other cortex was not injured and left intact. Following the experimental TBI protocol, the animals were randomly divided into two groups and were either treated with vehicle or 10 mg/kg of β-methyl-6-chloromelatonin intraperitoneally (two doses; first dose 15 minutes after TBI and the second 24 hours later). The animals were allowed to recover for 168 hours (seven days). On Day 7, quantitative morphometric image analysis was employed to assess cortical tissue damage. Quantitative morphometry is considered to be the “gold standard” for assessing neuroprotectant drug efficacy in TBI (Sullivan et al., 1999; Sullivan et al., 2000a; Sullivan et al., 2000b).

[5] = 10 mg/kg i.p. 1 hr prior to open field testing
[6] = 100 mg/kg i.p. 1 hr prior to open field testing
[7] = 10 and 100 mg/kg i.p., P values>0.10

| Structure (SMILES) | headache frequency [1] | headache intensity [1] | body weight [2] | body weight (middle-aged male rats; daily treatment, middle-aged obesity, Rasmussen et al., 1999) | fat content (middle-aged male rats; middle-age obesity, as opposed to lean body mass) | core symptoms of fibromyalgia (severity of pain, tender point count, patient and physician ratings) ([3]; 20 patients treated for 30 days, Citera et al., 2000) | patient-reported improvement including lack of pain and fatigue ([3]; daily treatment, end of treatment, Acuna-Castroviejo et al., 2006) | binding to melatonin receptors (melatonin receptors) | side effects compared to placebo treatment (humans) | reduction in brain infarct size compared to vehicle-treated IHI mice (IHI mice) | rearing behavior compared to vehicle controls (male Sprague-Dawley rats; [5]) | immobility compared to controls (male Sprague-Dawley rats; [5]) | rearing behavior compared to vehicle controls (male Sprague-Dawley rats; [6]) | immobility compared to controls (male Sprague-Dawley rats; [6]) | sedative effect: quadrant crossings (male Sprague-Dawley rats; [7]) | sedative effect: total mobility (male Sprague-Dawley rats; [7]) | nitrite production ([4]; P<0.01, FIG. 4) | increase in PGE2 levels ([4]; P<0.01, FIG. 5) | reduction in damaged cortical tissue compared to vehicle-treated TBI rats (TBI rats) |
| --- | --- | --- | --- | --- | --- | --- | --- | --- | --- | --- | --- | --- | --- | --- | --- | --- | --- | --- | --- |
| COc1ccc2[nH]cc(CCNC(C)=O)c2c1 [melatonin] | significant decrease | decrease | significantly decreased | significantly decreased | significant decrease | Significant improvement | significant improvement | – | – | – | – | – | – | – | – | – | – | – | – |
| COc1cc2c([C@@H](C)CNC(C)=O)c[nH]c2cc1Cl [β-methyl-6-chloromelatonin, (R)-N-[2-(6-chloro-5-methoxy-1H-indol-3-yl)propyl]acetamide] | – | – | – | – | – | – | – | high affinity | no significant side effects | 33-40% | significantly increased | significantly decreased | significantly increased | significantly decreased | no significant drug effect | no significant drug effect | blocked | blocked | 68% |
